Counter-ions that a name gives are not always drawn.
Test: collision cross section in nitrogen (drift tube, single-field); higher = larger gas-phase ion size
[1] = ion type: [M+H], ion source: APCI, ion mode: Positive
[2] = ion type: [M+H], ion source: ESI, ion mode: Positive
[3] = ion type: [M+Na], ion source: ESI, ion mode: Positive
[4] = ion type: [M-H], ion source: ESI, ion mode: Negative
[5] = ion source: APCI, ion mode: Positive, ion type: [M]+ (permanent cation)
[6] = ion source: ESI, ion mode: Positive, ion type: [M]+ (permanent cation)
[7] = ion type: [M+], ion source: APCI, ion mode: Positive
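Note: chemical standards at 10 µM analysed by drift tube IMS-QTOF MS in about 3.95 torr nitrogen, mean of duplicate injections differing ≤1%, mass error below 10 ppm.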

| SMILES | collision cross section in nitrogen [1] [Å²] | collision cross section in nitrogen [2] [Å²] | collision cross section in nitrogen [3] [Å²] | collision cross section in nitrogen [4] [Å²] | also measured |
| --- | --- | --- | --- | --- | --- |
| NC(=O)N1c2ccccc2C=Cc2ccccc21 [Carbamazepine] | 150.5 | 150.1 | 161.1 | – | – |
| CC(C)N1C(=O)c2ccccc2NS1(=O)=O [Bentazone] | – | – | – | 146.9 | – |
| CN(C)c1ccccc1 [N,N-Dimethylaniline] | – | – | 123.8 | – | – |
| COc1ccc(C(CN(C)C)C2(O)CCCCC2)cc1 (stereo unspecified) [Venlafaxine hydrochloride] | 170.8 | 170.7 | 177.7 | – | – |
| N#Cc1ccc(C(=O)O)cc1 [4-Cyanobenzoic acid] | – | – | – | 142.1 | – |
| CN(C)C(=O)NC1(c2ccccc2)CCN(CCC[C@]2(c3ccc(Cl)c(Cl)c3)CCCN(C(=O)c3ccccc3)C2)CC1 | 252.9 | 252.5 | 256.5 | 246.6 | – |
| CC(=O)c1ccc(N)cc1 [4-Aminoacetophenone] | – | – | – | 125 | – |
| O=C(O)c1cc(Br)c(O)c(Br)c1 [3,5-Dibromo-4-hydroxybenzoic acid] | – | – | – | 136.4 | – |
| CCn1cc(C(=O)O)c(=O)c2ccc(C)nc21 [Nalidixic acid] | 147.5 | 147.8 | 161.1 | – | – |
| CCCCOC(=O)CCCCCCCC(=O)OCCCC [Dibutyl azelate] | – | – | 191.2 | 176 | – |
| CCOC(=O)c1cn2nc(OP(=S)(OCC)OCC)cc2nc1C [Pyrazophos] | 192.5 | 191.7 | 195.9 | – | – |
| O=C1NC(=O)c2cccc3cccc1c23 [1H-Benzo[de]isoquinoline-1,3(2H)-dione] | – | – | – | 140.8 | – |
| CCCN(CC)CC1COC2(CCC(C(C)(C)C)CC2)O1 (stereo unspecified) [Spiroxamine] | – | 176.6 | – | – | – |
| CC1=NN(c2cc(S(=O)(=O)O)ccc2Cl)C(=O)C1/N=N/c1ccccc1 (stereo unspecified) [C.I. Acid Yellow 34, monosodium salt] | – | 196.9 | – | 202.7 | – |
| CCCCCCCCCCC=CC1CC(=O)OC1=O (stereo unspecified) [3-(Dodecenyl)dihydro-2,5-furandione] | – | – | – | 170.1 | – |
| CCCCOC(=O)c1ccc(O)cc1 [Butylparaben] | – | – | – | 149.4 | – |
| CCc1cc(C2=C(C(=O)O)N(c3ccccc3C(F)(F)F)S(=O)(=O)c3ccccc32)cc2c1OCO2 [Fandosentan potassium salt] | – | – | 216.3 | 204.7 | – |
| C(=CNc1ccccc1)C=Nc1ccccc1 [N-(3-Anilino-2-propenylidene)aniline monohydrochloride] | – | 159.3 | – | 158.6 | – |
| O=C1c2ccccc2C(=O)c2c(O)c(O)cc(O)c21 [Purpurin] | – | – | – | 149 | – |
| Cc1cc(C)c(S(=O)(=O)O)cc1N=Nc1cc(S(=O)(=O)O)c2ccccc2c1O [FD&C Red 4] | – | – | – | 208.6 | – |
| Cc1ccc(OP(=O)(Oc2ccc(C)cc2C)Oc2ccc(C)cc2C)c(C)c1 [Trixylyl phosphate] | 204.2 | 203.1 | 212.6 | – | – |
| CCOc1ccc(NC(C)=O)cc1 [Phenacetin] | 141.4 | 141.5 | – | – | – |
| O=S(=O)(O)c1cc(O)ccc1O [Potassium 2,5-dihydroxybenzenesulfonate] | – | – | – | 131.2 | – |
| CC(C)c1ccc(O)c(C(C)C)c1 [2,4-Diisopropylphenol] | – | – | – | 146.7 | – |
| C(=C(c1ccccc1)c1ccccc1)c1ccccc1 [Triphenylethylene] | – | 153.5 | – | – | – |
| CCCCCCCCN1CCCC1=O [1-Octyl-2-pyrrolidone] | 158.6 | 158.5 | – | – | – |
| OCCOCCN1CCN(C(c2ccccc2)c2ccc(Cl)cc2)CC1 (stereo unspecified) [Hydroxyzine hydrochloride] | 197.7 | 197.2 | 195.7 | – | – |
| CCCCCCCCCCCCCCCC[n+]1ccccc1 [Cetylpyridinium bromide] | – | – | – | – | collision cross section in nitrogen [5]: 193.4 Å²; collision cross section in nitrogen [6]: 194.3 Å² |

| SMILES | collision cross section in nitrogen [1] [Å²] | collision cross section in nitrogen [2] [Å²] | collision cross section in nitrogen [3] [Å²] | collision cross section in nitrogen [4] [Å²] | also measured |
| --- | --- | --- | --- | --- | --- |
| Nc1ccc(S(=O)(=O)Nc2nccs2)cc1 [Sulfathiazole sodium] | 153.3 | 153.6 | 167.2 | 154.1 | – |
| CCOC(=O)CCN(SN(C)C(=O)Oc1cccc2c1OC(C)(C)C2)C(C)C [Benfuracarb] | 197.3 | 197.3 | 201.5 | – | – |
| CCCCCCCCCCCCCCCCCC[N+](C)(C)Cc1ccccc1 [Benzalkonium chloride C18 (BAC C18)] | – | – | – | – | collision cross section in nitrogen [5]: 215.1 Å²; collision cross section in nitrogen [6]: 216.6 Å² |
| O=P(OCCCl)(OCCCl)OCCCl [Tris(2-chloroethyl) phosphate] | – | – | 160.2 | – | – |
| O=C(NS(=O)(=O)/C=C/c1ccccc1)c1ccc(F)cc1Cl | – | – | 188.9 | 177.6 | – |
| CC(C)CCCCCCOC(=O)CCCCC(=O)OCCCCCCC(C)C [Diisononyl adipate] | – | – | 219.4 | – | – |
| Oc1cccc(C(F)(F)F)c1 [3-(Trifluoromethyl)phenol] | – | – | – | 121.3 | – |
| Cc1ccc(C)c(S(=O)(=O)O)c1 [2,5-Dimethylbenzenesulfonic acid] | – | – | – | 138.2 | – |
| CCC(=O)OCC(COC(=O)CC)OC(=O)CC [Tripropionin] | – | – | 161.2 | – | – |
| CC(C)CC(C)(c1ccc(O)cc1)c1ccc(O)cc1 [4,4'-(4-Methylpentane-2,2-diyl)diphenol] | – | – | – | 175.3 | – |
| O=[N+]([O-])c1ccccc1O [2-Nitrophenol] | – | – | – | 121.2 | – |
| Cc1cc(N)n(-c2ccccc2)n1 [3-Methyl-1-phenyl-1H-pyrazol-5-amine] | 136.3 | 136.5 | – | 136.1 | – |
| O=C(Oc1cccc(O)c1)c1ccccc1 [Resorcinol monobenzoate] | – | – | – | 152.9 | – |
| NCCOS(=O)(=O)O [2-Aminoethyl hydrogen sulfate] | – | – | – | 121.6 | – |
| Nc1ccc2cc(S(=O)(=O)O)ccc2c1 [6-Aminonaphthalene-2-sulfonic acid] | – | – | – | 150.3 | – |
| Nc1ccc(-c2ccc(F)cc2)cc1 [4'-Fluoro-4-aminodiphenyl] | – | 156.4 | – | – | collision cross section in nitrogen [7]: 136.9 Å² |
| S=c1[nH]c2ccccc2[nH]1 [2-Mercaptobenzimidazole] | 128 | 127.8 | – | 127.1 | collision cross section in nitrogen [7]: 125.7 Å² |
| [O-][n+]1ccc(Cl)cc1 [4-Chloropyridine 1-oxide] | – | 121.6 | – | 117.2 | – |
| COc1ccc(N=Nc2cc(C)c(N=Nc3ccc(S(=O)(=O)O)cc3)cc2OC)cc1 [C.I. Acid Orange 156] | – | 219.7 | – | 231.2 | – |
| O=c1c(O)c(-c2ccc(O)cc2)oc2cc(O)cc(O)c12 [Kaempferol] | 163.2 | 162.8 | – | 162.2 | – |
| O=C(Nc1ccc(F)cc1F)c1cccnc1Oc1cccc(C(F)(F)F)c1 [Diflufenican] | 184.7 | 189.1 | – | 180.6 | – |
| CCCOC(=O)NCCCN(C)C [Propamocarb] | 142.9 | 143.3 | – | – | – |
| C=CC1(C)OC(=O)N(c2cc(Cl)cc(Cl)c2)C1=O (stereo unspecified) [Vinclozolin] | – | – | – | 154.4 | – |
| c1ccc2[nH]nnc2c1 [1,2,3-Benzotriazole] | 120.7 | 122.2 | – | 118.9 | – |
| Oc1c(I)cc(I)c2cccnc12 [Iodoquinol] | – | 146.4 | – | 147.3 | – |
| CCCCC(CC)COC(=O)c1ccccc1C(=O)OCC(CC)CCCC (stereo unspecified) [Di(2-ethylhexyl) phthalate] | – | – | 215.9 | – | – |
| COc1c2ccoc2cc2oc(=O)ccc12 [5-Methoxypsoralen] | 139.3 | 140.3 | – | – | – |

From the supplement of paper PMC12317010
